The target of assay [1] is IDH1 R132H (Homo sapiens, UniProt O75874, R132H). Nature of the assay: IDH1 R132H enzymatic assay (NADPH depletion coupled to diaphorase/resazurin). The class given is biochemical.
Assay [2] concerns the target IDH1 R132C (Homo sapiens, UniProt O75874, R132C). Nature of the assay: IDH1 R132C enzymatic assay (NADPH depletion coupled to diaphorase/resazurin). It counts as biochemical. The method in brief:
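NADPH depletion, read via diaphorase/resazurin coupling, after adding substrate at 0.6 mM α-KG and 0.012 mM NADPH. Beforehand, 0.00032 mg/mL enzyme sat with compound 30 min at room temperature in pH 6.5 potassium phosphate buffer with MgCl2, glycerol and BSA.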

Setting [3] is: enzymatic inhibition, IDH1 R132H.
Where [4] appears, read: enzymatic inhibition, IDH1 R132C.
[5] abbreviates: IDH1 R132H enzymatic inhibition, IC50 class.
Where [6] appears, read: IDH1 R132C enzymatic inhibition, IC50 class.

Structures are written as SMILES.

Chain of IDH1 R132H (O75874 whole entry R132H): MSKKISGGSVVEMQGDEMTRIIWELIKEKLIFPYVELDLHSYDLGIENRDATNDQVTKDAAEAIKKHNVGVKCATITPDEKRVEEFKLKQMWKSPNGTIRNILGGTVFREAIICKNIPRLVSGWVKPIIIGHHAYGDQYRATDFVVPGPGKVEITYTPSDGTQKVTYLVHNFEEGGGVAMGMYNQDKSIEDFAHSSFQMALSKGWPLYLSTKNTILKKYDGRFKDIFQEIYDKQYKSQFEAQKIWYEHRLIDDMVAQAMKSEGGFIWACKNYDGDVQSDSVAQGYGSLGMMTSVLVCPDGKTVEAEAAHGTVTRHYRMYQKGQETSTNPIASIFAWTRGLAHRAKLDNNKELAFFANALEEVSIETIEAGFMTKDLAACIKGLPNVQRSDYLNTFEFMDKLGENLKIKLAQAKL
Chain of IDH1 R132C (O75874 whole entry R132C): as the sequence (O75874 whole entry R132H) above, with H132C counted along it

`COc1ccc(-n2c3c(cc(-c4nc(-c5ccc(Cl)cc5)cs4)c2=O)C(=O)CC(C)(C)C3)c(OC)c1` [Compound 597]: the IC50 in assay [1] (setting [3]) and in assay [2] (setting [4]) was greater than 20000 nM throughout.
`CCOc1ccc(-c2csc(-c3cc(C(=O)N4CCNCC4)c(C=C(C)C)n(-c4c(CC)cccc4CC)c3=O)n2)cc1` [Compound 598]: the IC50 in assay [1] (setting [3]) and in assay [2] (setting [4]) was less than 300 nM throughout.
As for `CCc1cccc(CC)c1-n1c(C=C(C)C)c(C(=O)N2CCNCC2CC(=O)O)cc(-c2nc(-c3ccc(Cl)cc3)cs2)c1=O` (centres unmarked) [Compound 599], the IC50 in assay [1] (setting [3]) and in assay [2] (setting [4]) was less than 300 nM in each case.
Turning to `CCc1ccc(Cl)c(CC)c1-n1c(C)c(C(=O)N2CCNCC2)cc(-c2nc(-c3ccc(Cl)cc3)cs2)c1=O` [Compound 600], the IC50 in assay [1] (setting [3]) was in the range of 300 to 1000 nM; in assay [2] (setting [4]), 1000 to 5000 nM.
Taken in the same sequence, the figures for `CCc1cccc(CC)c1-n1c(CC(C)C)c(C(=O)N2CCNCC2)cc(-c2nc(-c3ccc(Cl)cc3)c(Br)s2)c1=O` [Compound 601] were 300 to 1000 nM and less than 300 nM.
The corresponding values for `CC(C)=Cc1c(C(=O)N2CCNCC2)cc(-c2nc(-c3ccc(Cl)cc3)cs2)c(=O)n1-c1cc(Cl)cnc1OC(C)C` [Compound 602] are less than 300 nM and less than 300 nM.
On to `COc1ccc(C#N)cc1-n1c(C=C(C)C)c(C(=O)N2CCNCC2)cc(-c2nc(-c3ccc(Cl)cc3)cs2)c1=O` [Compound 603], for which the IC50 in assay [1] (setting [3]) and in assay [2] (setting [4]) was 300 to 1000 nM in each case.
Take `CCc1cccc(CC)c1-n1c(C=C(C)C)c(C(=O)N2CCNC[C@@H]2C)cc(-c2nc(-c3ccc(C(F)(F)F)cc3)cs2)c1=O` [Compound 604]: the IC50 in assay [1] (setting [3]) and in assay [2] (setting [4]) was less than 300 nM each time.
In the case of `CCc1cccc(CC)c1-n1c(C=C(C)C)c(C(=O)N2CCNCC2)cc(-c2nc(-c3ccc(OC4CC4)cc3)cs2)c1=O` [Compound 605], the IC50 in assay [1] (setting [3]) and in assay [2] (setting [4]) was less than 300 nM in each case.
In the case of `CCc1cccc(CC)c1-n1c(C=C(C)C)c(C(=O)N2CCNCC2)cc(-c2ccn(-c3ccc(C4CC4)cc3)n2)c1=O` [Compound 606], the IC50 in assay [1] (setting [3]) and in assay [2] (setting [4]) was less than 300 nM throughout.
For `CCc1cccc(CC)c1-n1c(CC(C)C)c(C(=O)N2CCNCC2)cc(-c2nc(-c3ccc(Cl)c(F)c3)c(C)s2)c1=O` [Compound 608], the IC50 in assay [1] (setting [3]) and in assay [2] (setting [4]) was less than 300 nM throughout.
As to `CCOc1cccc(OCC)c1-n1c2c(cc(-c3nc(-c4ccc(Cl)cc4)cs3)c1=O)C(=O)CC(C)(C)C2` [Compound 609], the IC50 in assay [1] (setting [3]) and in assay [2] (setting [4]) was 300 to 1000 nM throughout.
With `CCc1cccc(CC)c1-n1c2c(cc(-c3nc(-c4ccc(Cl)cc4)cs3)c1=O)C(=O)N1CCCCC21` (centres unmarked) [Compound 610], the IC50 in assay [1] (setting [3]) and in assay [2] (setting [4]) was 300 to 1000 nM each time.
For the molecule `CCc1cccc(CC)c1-n1c(CC2CCOC2)c(C(=O)N2CCNCC2)cc(-c2nc(-c3ccc(Cl)cc3)cs2)c1=O` (centres unmarked) [Compound 611], the IC50 in assay [1] (setting [3]) and in assay [2] (setting [4]) was less than 300 nM each time.
As for `CCc1cccc(CC)c1-n1c(CC2CCCCC2)c(C(=O)N2CCNCC2)cc(-c2nc(-c3ccc(Cl)cc3)cs2)c1=O` [Compound 612], the IC50 in assay [1] (setting [3]) and in assay [2] (setting [4]) was less than 300 nM in each case.
For `Cc1ccc(Cl)c(-n2c3c(cc(-c4nc(-c5ccc(Cl)cc5)cs4)c2=O)C(=O)CC(C)(C)C3)c1` [Compound 613], the IC50 in assay [1] (setting [3]) and in assay [2] (setting [4]) was 300 to 1000 nM throughout.
For `COc1ncccc1-n1c(C=C(C)C)c(C(=O)N2CCNCC2)cc(-c2nc(-c3ccc(Cl)cc3)cs2)c1=O` [Compound 614], the IC50 in assay [1] (setting [3]) and in assay [2] (setting [4]) was less than 300 nM each time.
`CCc1cccc(CC)c1-n1c(CC2CCNCC2)c(C(=O)N2CCNCC2)cc(-c2nc(-c3ccc(Cl)cc3)cs2)c1=O` [Compound 615]: the IC50 in assay [1] (setting [3]) and in assay [2] (setting [4]) was greater than 20000 nM each time.
`CC(C)=Cc1c(C(=O)N2CCNCC2)cc(-c2nc(-c3ccc(Cl)cc3)cs2)c(=O)n1-c1ccc[nH]c1=O` [Compound 616]: the IC50 in assay [1] (setting [3]) and in assay [2] (setting [4]) was 5000 to 20000 nM each time.
With `CCc1cccc(CC)c1N1C(=O)C(c2nc(-c3ccc(Cl)cc3)cs2)CC(CN2CCNCC2)=C1CC(C)C` (centres unmarked) [Compound 617], the IC50 in assay [1] (setting [5]) and in assay [2] (setting [6]) was 1000 to 5000 nM in each case.
For the molecule `CCc1ncc(F)cc1-n1c(C=C(C)C)c(C(=O)N2CCNCC2)cc(-c2nc(-c3ccc(C(F)F)cn3)cs2)c1=O` [Compound 619], the 50% inhibitory concentration (IC50) in assay [1] (setting [5]) and in assay [2] (setting [6]) was 1000 to 5000 nM each time.
For the molecule `CCc1cccc(CC)c1-n1c(C=C(C)C)c(C(=O)N2CCNCC2)cc(-c2nc(-c3ccc(C4CC4)cc3)cs2)c1=O` [Compound 620], the IC50 in assay [1] (setting [5]) and in assay [2] (setting [6]) was less than 300 nM in each case.
Regarding `CCc1cccc(CC)c1-n1c(C=C(C)C)c(C(=O)N2CCNCC2CC(C)C)cc(-c2nc(-c3ccc(Cl)cc3)cs2)c1=O` (centres unmarked) [Compound 621], the IC50 in assay [1] (setting [5]) is 300 to 1000 nM; in assay [2] (setting [6]), less than 300 nM.
With `CCc1cccc(CC)c1-n1c(CC2CCCC2)c(C(=O)N2CCNCC2)cc(-c2nc(-c3ccc(Cl)cc3)cs2)c1=O` [Compound 622], the IC50 in assay [1] (setting [5]) and in assay [2] (setting [6]) was less than 300 nM in each case.
Consider `CCc1cccc(CC)c1-n1c(C=C(C)C)c(C(=O)N2CCC(NC)CC2)cc(-c2nc(-c3ccc(Cl)cc3)cs2)c1=O` [Compound 623], for which the IC50 in assay [1] (setting [5]) and in assay [2] (setting [6]) was less than 300 nM each time.
Consider `CCc1cccc(CC)c1-n1c(CC(C)C)c(C(=O)N2CCNCC2)cc(-c2nc(-c3ccc(Cl)c(C)c3)c(C)s2)c1=O` [Compound 624], for which the IC50 is 300 to 1000 nM in assay [1] (setting [5]) and less than 300 nM in assay [2] (setting [6]).
Taken in the same sequence, the figures for `CCOc1ccc(Cl)cc1-n1c(C=C(C)C)c(C(=O)N2CCNCC2)cc(-c2nc(-c3ccc(C(F)(F)F)nc3)cs2)c1=O` [Compound 626] were less than 300 nM and 300 to 1000 nM.
As to `CCc1cccc(CC)c1-n1c(CC2CCNC2)c(C(=O)N2CCNCC2)cc(-c2nc(-c3ccc(Cl)cc3)cs2)c1=O` (centres unmarked) [Compound 627], the IC50 in assay [1] (setting [5]) and in assay [2] (setting [6]) was 5000 to 20000 nM each time.
For the molecule `CCc1cccc(C)c1-n1c2c(cc(-c3nc(-c4ccc(Cl)cc4)cs3)c1=O)C(=O)CCC2` [Compound 628], the IC50 in assay [1] (setting [5]) and in assay [2] (setting [6]) was 1000 to 5000 nM in each case.
With `CCc1cccc(CC)c1-n1c(C=C(C)C)c(C(=O)N2CCCC(N)C2)cc(-c2nc(-c3ccc(Cl)cc3)cs2)c1=O` (centres unmarked) [Compound 629], the IC50 in assay [1] (setting [5]) and in assay [2] (setting [6]) was less than 300 nM throughout.
In the case of `COc1ccc(F)cc1-n1c(C=C(C)C)c(C(=O)N2CCNCC2)cc(-c2nc(-c3ccc(Cl)cc3)cs2)c1=O` [Compound 630], the half-inhibitory concentration (IC50) in assay [1] (setting [5]) and in assay [2] (setting [6]) was less than 300 nM throughout.
In the case of `CCc1cccc(CC)c1-n1c(C=C(C)C)c(C(=O)N2CCNCC2C)cc(-c2nc(-c3ccc(Cl)cc3)cs2)c1=O` (centres unmarked) [Compound 631], the IC50 in assay [1] (setting [5]) and in assay [2] (setting [6]) was less than 300 nM throughout.
Take `CCc1cccc(CC)c1-n1c(CC(C)C)c(C(=O)N2CCNCC2)cc(-c2nc(-c3ccc(Cl)cc3F)c(C)s2)c1=O` [Compound 632]: the IC50 in assay [1] (setting [5]) and in assay [2] (setting [6]) was 300 to 1000 nM each time.
Consider `CCc1cccc(CC)c1-n1c(CC(C)C)c(C(=O)N2CCNCC2)cc(-c2nc(-c3ccc(Cl)c(OC)c3)c(C)s2)c1=O` [Compound 633], for which the IC50 in assay [1] (setting [5]) and in assay [2] (setting [6]) was 300 to 1000 nM each time.
For the molecule `O=C1CCCc2c1cc(-c1nc(-c3ccc(Cl)cc3)cs1)c(=O)n2-c1ccccc1CO` [Compound 634], the IC50 in assay [1] (setting [5]) was greater than 20000 nM; in assay [2] (setting [6]), 5000 to 20000 nM.
Taken in the same sequence, the figures for `CCc1cccc(CC)c1-n1c(C=C(C)C)c(C(=O)N2CCCNC(=O)C2)cc(-c2ccn(-c3ccc(Cl)cc3)n2)c1=O` [Compound 635] were less than 300 nM and less than 300 nM.
Taken in the same sequence, the figures for `CCc1ncc(OC)cc1-n1c(C=C(C)C)c(C(=O)N2CCNCC2)cc(-c2nc(-c3ccc(C(F)(F)F)cc3)cs2)c1=O` [Compound 636] were less than 300 nM and less than 300 nM.
On to `CCc1cccc(CC)c1-n1c(CC(C)C)c(C(=O)N2CCNCC2)cc(-c2nc(-c3ccc(Cl)cc3Cl)c(C)s2)c1=O` [Compound 637], for which the IC50 in assay [1] (setting [5]) and in assay [2] (setting [6]) was 300 to 1000 nM in each case.
For the molecule `CCc1cccc(CC)c1-n1c(C=C(C)C)c(C(=O)N2CCNCC2)cc(-c2nn(-c3ccc(Cl)cc3)cc2C)c1=O` [Compound 638], the results for the IC50 in assay [1] (setting [5]) and in assay [2] (setting [6]) were less than 300 nM and 1000 to 5000 nM, respectively.
The corresponding values for `CCOc1ncc(C)cc1-n1c(C=C(C)C)c(C(=O)N2CCNCC2)cc(-c2nc(-c3ccc(C(F)(F)F)nc3)cs2)c1=O` [Compound 639] are less than 300 nM and 300 to 1000 nM.
Taken in the same sequence, the figures for `CCc1cccc(CC)c1-n1c(CC(C)C)c(C(=O)N2CCNCC2)cc(-c2ccn(-c3ccc(C(F)(F)F)cc3)n2)c1=O` [Compound 640] were less than 300 nM and less than 300 nM.
Regarding `CCc1cccc(CC)c1-n1c(C=C(C)C)c(C(=O)N2CCN[C@@H](C(=O)O)C2)cc(-c2nc(-c3ccc(C(F)(F)F)cc3)cs2)c1=O` [Compound 641], the IC50 in assay [1] (setting [5]) and in assay [2] (setting [6]) was less than 300 nM throughout.
For `CCc1cccc(OC)c1-n1c(C=C(C)C)c(C(=O)N2CCNCC2)cc(-c2nc(-c3ccc(Cl)cc3)cs2)c1=O` [Compound 642], the IC50 in assay [1] (setting [5]) and in assay [2] (setting [6]) was less than 300 nM in each case.
For `CCc1cccc(CC)c1-n1c(CC(C)C)c(C(=O)N2CCNCC2)cc(-c2coc(-c3ccc(Cl)cc3)n2)c1=O` [Compound 643], the 50% inhibitory concentration (IC50) in assay [1] (setting [5]) and in assay [2] (setting [6]) was 300 to 1000 nM in each case.
With `COc1ccccc1-n1c(C=C(C)C)c(C(=O)N2CCNCC2)cc(-c2nc(-c3ccc(Cl)cc3)cs2)c1=O` [Compound 644], the values for the IC50 in assay [1] (setting [5]) and in assay [2] (setting [6]) were less than 300 nM and 300 to 1000 nM, respectively.
`CN1CCN(c2ccc(C(F)(F)F)c(-n3c4c(cc(-c5nc(-c6ccc(Cl)cc6)cs5)c3=O)C(=O)CC(C)(C)C4)c2)CC1` [Compound 645]: the IC50 in assay [1] (setting [5]) and in assay [2] (setting [6]) was 1000 to 5000 nM throughout.

Values taken from patent US10703746B2, “Mutant IDH1 inhibitors useful for treating cancer” (THE UNITED STATES OF AMERICA, AS REPRESENTED BY THE …, priority 2014, dated 2020).
